Measured values reported in ChEMBL document CHEMBL4414610, “Constituents from the Leaves of Tetraena mongolica and Their Protective Activity in HEK 293t Cells Damaged by CdCl2” (J Nat Prod, 2019).
The source made the active and inactive calls. The rule behind the calls is not given here.

Assays:
HEK-293T [1] = assay: Cytoprotective activity against CdCl2-induced cell death in human HEK293T cells at 25 to 100 uM preincubated for 2 hrs followed by CdCl2 treatment and measured after 12 hrs by MTT assay; type: functional, cell-based
HEK-293T [2] = assay: Cytoprotective activity against CdCl2-induced cell death in human HEK293T cells assessed as increase in cell viability preincubated for 2 hrs followed by CdCl2 treatment and measured after 48 hrs by MTT assay; type: functional, cell-based

SMILES	Activity (HEK-293T [1])	IC50 (HEK-293T [2])
CC1=CC(=O)CC(C)(C)[C@@]1(O)/C=C/[C@@H](C)O[C@@H]1O[C@H](CO)[C@@H](O)[C@H](O)[C@H]1O [6S,9R-ROSEOSIDE]	Active	55.7 µM
OC[C@H]1O[C@@H](OCc2ccccc2)[C@H](O)[C@@H](O)[C@@H]1O	Active	80.3 µM
C[C@H](CCc1ccc(O)cc1)O[C@@H]1O[C@H](CO)[C@@H](O)[C@H](OS(=O)(=O)O)[C@H]1O	Active	–
C[C@H](/C=C/[C@@]1(O)[C@H](C)CC(=O)CC1(C)C)O[C@@H]1O[C@H](CO)[C@@H](O)[C@H](OS(=O)(=O)O)[C@H]1O	Active	–
COc1cc(-c2oc3cc(O)cc(O)c3c(=O)c2O[C@@H]2O[C@H](CO[C@@H]3O[C@@H](C)[C@H](O)[C@@H](O)[C@H]3O)[C@@H](O)[C@H](O)[C@H]2O)ccc1O	Active	–
C[C@@H]1O[C@@H](OC[C@H]2O[C@@H](Oc3c(-c4ccc(O)c(O)c4)oc4cc(O)cc(O)c4c3=O)[C@H](O)[C@@H](O)[C@@H]2O)[C@H](O)[C@H](O)[C@H]1O	Active	–
O=c1c(O[C@@H]2O[C@H](CO)[C@@H](O)[C@H](O)[C@H]2O)c(-c2ccc(O)c(O)c2)oc2cc(O)cc(O)c12	Active	–
CC1=CC(=O)CC(C)(C)[C@@]1(O)/C=C/[C@@H](C)O[C@@H]1O[C@H](CO)[C@@H](O)[C@H](OS(=O)(=O)O)[C@H]1O	Active	–
